Read-outs that look alike come from different tables or passages of the source.

The term IC50 denotes the concentration needed to halve the response being measured.

Assay [1] concerns the target T1, GDP loaded biotinylated KRas^G12C protein (Homo sapiens, UniProt P01116, G12C).
T1 construct: biotin (biotinylated); made in house
The assay can be described thus: KRasG12C functional assay. The note with it: HTRF FRET readout of SOS-mediated nucleotide exchange and GST-Raf RBD binding, samples incubated for 4 hrs. The class given is biochemical. How it is done: KRasG12C Functional Assay
All enzyme and substrate solutions were prepared in assay buffer containing 20 mM HEPES (pH 7.5), 5 mM MgCl2, 150 mM NaCl, and 0.01% Tween 20. […] In a separate mix 20 nM GST-Raf Ras binding domain (GST-Raf RBD, purified in house) and 4 μg/ml anti-GST XL665 antibody (Cisbio) was prepared in assay buffer containing 50 mM Potassium Fluoride and 0.05 mg/ml BSA and equilibrated for 4 hours before adding 0.6 μM Guanosine 5′-[γ-thio]triphosphate (GTPγS, Sigma) and 0.08 μM SOS (purified in house). 5 μl of the GST-RAF RBD mix was then dispensed into each well of the assay plate. […] This is detected simultaneously via the specific binding interaction between active GTPγS KRas^G12C with GST-Raf RBD which brings the europium and XL665 into close proximity enabling an increased FRET signal to be detected on a Pherastar (BMG) plate reader equipped with the HTRF filter module. […] IC50 values were calculated from normalised dose-response response FRET data curve fitted in Genedata screener (Basel, Switzerland).
In general terms: Time-resolved FRET reads energy transfer from a long-lived donor to a nearby acceptor.

Assay [2] has as its target T1, GDP loaded biotinylated KRas^G12C protein. In words: KRasG12C mass spectrometry adducting assay. It is filed as binding. The conditions noted are these: test compound final concentration 10 μM, 4 μM KRasG12C, react for 4 hours. The method, then:
KRasG12C Mass Spectrometry Adducting Assay
Enzyme solutions were prepared in assay buffer containing 20 mM HEPES (pH 7.5), 5 mM MgCl2, and 150 mM NaCl. […] The plate was sealed before reading on a Xevo G2 QTOF (Waters) and Acquity LC system (Waters). […] Blank samples were run in between each test sample.
Data was analysed in Mass Lynx software (Waters), the Total ion count (TIC) trace was used and the eluted protein peak data combined. Using the combined spectrum the data was deconvoluted using MaxEnt1 method. The peak area for apo-protein KRas^G12C (APO) and KRAS+relative cmpd mass (adduct) were measured, and a percentage adduct was calculated using the following calculation:
Percent adduct=100*(area of adduct peak/(sum of APO+adduct peaks)

[3] abbreviates: read-out: KRasG12C functional assay IC50 value.

T1 sequence (P01116 1-188 isoform P01116-2 G12C): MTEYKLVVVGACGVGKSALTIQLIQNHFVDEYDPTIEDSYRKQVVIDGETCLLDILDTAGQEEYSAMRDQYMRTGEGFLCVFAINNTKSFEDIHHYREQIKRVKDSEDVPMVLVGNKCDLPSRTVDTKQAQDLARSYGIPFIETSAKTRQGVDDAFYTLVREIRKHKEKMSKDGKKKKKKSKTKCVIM

Consider `C=CC(=O)N1CCN2c3ncnc4cc(-c5ccc(F)cc5C)c(Cl)c(c34)OC[C@@H]2C1` [Example 64, 1-[(8aS)-6-Chloro-5-(4-fluoro-2-methylphenyl)-8a,9,11,12-tetrahydropyrazino[2′,1′:3,4][1,4]oxazepino[5,6,7-de]quinazolin-10(8H)-yl]prop-2-en-1-one], for which the IC50 in assay [1] (setting [3]) was found to be 1.57 µM. Moreover, in assay [2], the “KRasG12C M.S. Binding Mean adduct %” value worked out at 75%.
The like results for `C=CC(=O)N1CCN2c3ncnc4cc(-c5c(F)cccc5OC)c(Cl)c(c34)OC[C@@H]2C1` [Example 25, 1-[(8aS)-6-Chloro-5-(2-fluoro-6-methoxyphenyl)-8a,9,11,12-tetrahydropyrazino[2′,1′:3,4][1,4]oxazepino[5,6,7-de]quinazolin-10(8H)-yl]prop-2-en-1-one] were, in that order, 0.616 µM and 89%.
Take `C=CC(=O)N1CCN2c3ncnc4cc(-c5cccc(S(N)(=O)=O)c5)c(Cl)c(c34)OC[C@@H]2C1` [Example 31, 3-[(8aS)-10-Acryloyl-6-chloro-8,8a,9,10,11,12-hexahydropyrazino[2′,1′:3,4][1,4]oxazepino[5,6,7-de]quinazolin-5-yl]benzenesulfonamide]: the IC50 in assay [1] (setting [3]) was 6.97 µM. Also, in assay [2], the “KRasG12C M.S. Binding Mean adduct %” value is 14%.
For `C=CC(=O)N1CCN2c3ncnc4cc(-c5cccc6nccnc56)c(Cl)c(c34)OC[C@@H]2C1` [Example 32, 1-[(8aS)-6-Chloro-5-(quinoxalin-5-yl)-8a,9,11,12-tetrahydropyrazino[2′,1′:3,4][1,4]oxazepino[5,6,7-de]quinazolin-10(8H)-yl]prop-2-en-1-one], in that order: 8.32 µM and 33%.
For `C=CC(=O)N1CCN2c3ncnc4cc(-c5cccc(NC(C)=O)c5)c(Cl)c(c34)OC[C@@H]2C1` [Example 23, N-{3-[(8aS)-10-Acryloyl-6-chloro-8,8a,9,10,11,12-hexahydropyrazino[2′,1′:3,4][1,4]oxazepino[5,6,7-de]quinazolin-5-yl]phenyl}acetamide], in assay [1] (setting [3]), the IC50 worked out at 8.84 µM. The “KRasG12C M.S. Binding Mean adduct %” value in assay [2] came out at 20%.
As for `C=CC(=O)N1CCN2c3ncnc4cc(-c5ccc6oc(N)nc6c5)c(Cl)c(c34)OC[C@@H]2C1` [Example 21, 1-[(8aS)-5-(2-Amino-1,3-benzoxazol-5-yl)-6-chloro-8a,9,11,12-tetrahydropyrazino[2′,1′:3,4][1,4]-oxazepino[5,6,7-de]quinazolin-10(8H)-yl]prop-2-en-1-one], the IC50 in assay [1] (setting [3]) was 7.18 µM. Further, the “KRasG12C M.S. Binding Mean adduct %” value in assay [2] was found to be 20%.
For `C=CC(=O)N1CCN2c3ncnc4cc(-c5ccc(N)cc5C)c(Cl)c(c34)OC[C@@H]2C1` [Example 54, 1-[(8aS)-5-(4-Amino-2-methylphenyl)-6-chloro-8a,9,11,12-tetrahydropyrazino[2′,1′:3,4][1,4]oxazepino[5,6,7-de]quinazolin-10(8H)-yl]prop-2-en-1-one], in that order: 2.57 µM and 60%.
The like results for `CN(C)C/C=C/C(=O)N1CCN2c3ncnc4cc(-c5c(O)cccc5F)c(Cl)c(c34)OC[C@@H]2C1` [Example 12, (E)-1-((8aS)-6-Chloro-5-(2-fluoro-6-hydroxyphenyl)-8a,9,11,12-tetrahydropyrazino[2′,1′:3,4][1,4]oxazepino[5,6,7-de]quinazolin-10 (8H)-yl)-4-(dimethylamino)but-2-en-1-one] were, in that order, 0.381 µM and 76%.
The like results for `C=CC(=O)N1CCN2c3ncnc4cc(-c5cccc(NC(=O)OC)c5)c(Cl)c(c34)OC[C@@H]2C1` [Example 33, Methyl {3-[(8aS)-10-Acryloyl-6-chloro-8,8a,9,10,11,12-hexahydropyrazino[2′,1′:3,4][1,4]oxazepino[5,6,7-de]quinazolin-5-yl]phenyl}carbamate] were, in that order, 6.91 µM and 24%.
With `C=CC(=O)N1CCN2c3ncnc4cc(-c5c(O)cccc5Cl)c(Cl)c(c34)OC[C@@H]2C1` (single isomer, unassigned) [Example 16], in assay [1] (setting [3]), the IC50 came out at 0.032 µM. The “KRasG12C M.S. Binding Mean adduct %” value in assay [2] is recorded as 100%.
As for `C=CC(=O)N1CCN2c3ncnc4cc(-c5c(C)ccc6[nH]ncc56)c(Cl)c(c34)OC[C@@H]2C1` (single isomer, unassigned) [Example 2], the 50% inhibitory concentration (IC50) in assay [1] (KRasG12C functional assay IC50 value (μM)) was 38.9 µM. Further, in assay [2], the “KRasG12C M.S. Binding Mean adduct %” value amounted to 2%.
Take `C=CC(=O)N1CCN2c3ncnc4cc(-c5cccc6ccc(=O)n(C)c56)c(Cl)c(c34)OC[C@@H]2C1` [Example 44, 8-[(8aS)-10-Acryloyl-6-chloro-8,8a,9,10,11,12-hexahydropyrazino[2′,1′:3,4][1,4]oxazepino[5,6,7-de]quinazolin-5-yl]-1-methylquinolin-2(1H)-one]: in assay [1] (setting [3]), the IC50 is 3.62 µM. In addition, the “KRasG12C M.S. Binding Mean adduct %” value in assay [2] is listed as 51%.
For `C=CC(=O)N1CCN2c3ncnc4cc(-c5cc(F)ccc5OC)c(Cl)c(c34)OC[C@@H]2C1` [Example 51, 1-[(8aS)-6-Chloro-5-(5-fluoro-2-methoxyphenyl)-8a,9,11,12-tetrahydropyrazino[2′,1′:3,4][1,4]oxazepino[5,6,7-de]quinazolin-10(8H)-yl]prop-2-en-1-one], in that order: 5.09 µM and 57%.
For `C=CC(=O)N1CCN2c3ncnc4cc(-c5cccc6c5CCCOC6)c(Cl)c(c34)OC[C@@H]2C1` [Example 28, 1-[(8aS)-6-Chloro-5-(1,3,4,5-tetrahydro-2-benzoxepin-6-yl)-8a,9,11,12-tetrahydropyrazino[2′,1′:3,4][1,4]oxazepino[5,6,7-de]quinazolin-10(8H)-yl]prop-2-en-1-one], in that order: 9.93 µM and 26%.
For `C=CC(=O)N1CCN2c3ncnc4cc(-c5ccccc5OC(F)(F)F)c(Cl)c(c34)OC[C@@H]2C1` [Example 35, 1-[(8aS)-6-Chloro-5-[2-(trifluoromethoxy)phenyl]-8a,9,11,12-tetrahydropyrazino[2′,1′:3,4][1,4]oxazepino[5,6,7-de]quinazolin-10(8H)-yl]prop-2-en-1-one], in that order: 1.48 µM and 87%.
For the compound `C=CC(=O)N1CCN2c3ncnc4cc(-c5cccc6c5ncn6C)c(Cl)c(c34)OC[C@@H]2C1` [Example 45, 1-[(8aS)-6-Chloro-5-(1-methyl-1H-benzimidazol-4-yl)-8a,9,11,12-tetrahydropyrazino[2′,1′:3,4][1,4]oxazepino[5,6,7-de]quinazolin-10(8H)-yl]prop-2-en-1-one], the half-maximal inhibitory concentration (IC50) in assay [1] (setting [3]) came to 1.58 µM. In assay [2], the “KRasG12C M.S. Binding Mean adduct %” value worked out at 72%.
`C=CC(=O)N1CCN2c3ncnc4cc(-c5c(O)cccc5OC)c(Cl)c(c34)OC[C@@H]2C1` (single isomer, unassigned) [Example 18]: the IC50 in assay [1] (setting [3]) came to 0.868 µM. In addition, the “KRasG12C M.S. Binding Mean adduct %” value in assay [2] amounted to 100%.
With `C=CC(=O)N1CCN2c3ncnc4cc(-c5cc(CO)ccc5F)c(Cl)c(c34)OC[C@@H]2C1` [Example 38, 1-[(8aS)-6-Chloro-5-[2-fluoro-5-(hydroxymethyl)phenyl]-8a,9,11,12-tetrahydropyrazino[2′,1′:3,4][1,4]oxazepino[5,6,7-de]quinazolin-10(8H)-yl]prop-2-en-1-one], in assay [1] (setting [3]), the half-maximal inhibitory concentration (IC50) is 1.28 µM. Also, the “KRasG12C M.S. Binding Mean adduct %” value in assay [2] is listed as 82%.
The like results for `C=CC(=O)N1CCN2c3nc(N4CCOCC4)nc4cc(-c5c(C)ccc6[nH]ncc56)c(Cl)c(c34)OC[C@@H]2C1` (single isomer, unassigned) [Example 71] were, in that order, 0.226 µM and 83%.
The like results for `C=CC(=O)N1CCN2c3nc(N4CC(N(C)C)C4)nc4cc(-c5c(C)ccc6[nH]ncc56)c(Cl)c(c34)OC[C@@H]2C1` [Example 75, 1-((8aS)-6-chloro-2-(3-(dimethylamino)azetidin-1-yl)-5-(5-methyl-1H-indazol-4-yl)-8a,9,11,12-tetrahydropyrazino[2′,1′:3,4][1,4]oxazepino[5,6,7-de]quinazolin-10 (8H)-yl)prop-2-en-1-one] were, in that order, 0.019 µM and 57%.
Consider `C=CC(=O)N1CCN2c3ncnc4cc(-c5ccc(O)c(C#N)c5)c(Cl)c(c34)OC[C@@H]2C1` [Example 56, 5-[(8aS)-10-Acryloyl-6-chloro-8,8a,9,10,11,12-hexahydropyrazino[2′,1′:3,4][1,4]oxazepino[5,6,7-de]quinazolin-5-yl]-2-hydroxybenzonitrile], for which the IC50 in assay [1] (setting [3]) was found to be 4.39 µM. Further, the “KRasG12C M.S. Binding Mean adduct %” value in assay [2] is 0%.

(Values after patent US20220127281A1, “HETEROARYL COMPOUNDS THAT INHIBIT G12C MUTANT RAS PROTEINS” (AstraZeneca AB, priority 2017, published 2022).)
